Source: US20250382322A1, “DIAGNOSTICS FOR DETECTING ECTO-5'-NUCLEOTIDASE (CD73)” (EBERHARD KARLS UNIVERSITÄT TÜBINGEN, priority 2022, published 2025)

Key:
[1] = molecular target: T1, recombinant soluble human CD73 (Homo sapiens, UniProt P21589, T376A); assay: CD73 enzyme inhibition assay with [2,8-3H]AMP, soluble human CD73; assay type: biochemical; settings: [2,8-3H]AMP (5 μM) as substrate; Ki from IC50 by Cheng-Prusoff; read-out: Human soluble CD73 Ki ± SEM
T1 construct: mature human CD73 (residues 27-549) fused to 6×His-tag at the C-terminus; 6xHis (C); made in house; host or cells: Spodoptera frugiperda Sf9 insect cells (baculovirus, pAcGP67B vector)
T1 sequence (P21589 27-549 T376A): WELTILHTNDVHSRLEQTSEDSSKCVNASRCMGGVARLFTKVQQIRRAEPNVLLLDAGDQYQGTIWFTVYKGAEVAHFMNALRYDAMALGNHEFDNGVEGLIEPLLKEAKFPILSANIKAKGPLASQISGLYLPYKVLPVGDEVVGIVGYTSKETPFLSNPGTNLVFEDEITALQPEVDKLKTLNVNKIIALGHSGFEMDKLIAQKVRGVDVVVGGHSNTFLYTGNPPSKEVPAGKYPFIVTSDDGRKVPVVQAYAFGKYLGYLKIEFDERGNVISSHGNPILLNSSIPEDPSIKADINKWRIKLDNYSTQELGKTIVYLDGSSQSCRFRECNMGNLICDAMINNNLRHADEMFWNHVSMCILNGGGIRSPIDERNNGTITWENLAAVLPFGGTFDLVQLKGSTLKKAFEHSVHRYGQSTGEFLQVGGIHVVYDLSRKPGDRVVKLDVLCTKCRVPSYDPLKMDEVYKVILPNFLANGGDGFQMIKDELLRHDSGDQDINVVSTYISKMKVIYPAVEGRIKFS
Method: Compound 2b, its precursor 1, and 20 were investigated for their CD73-inhibitory potency using tritium-labeled AMP as a substrate.^20 After incubation with CD73, non-hydrolyzed substrate and inorganic phosphate were precipitated using a solution of lanthanum chloride, and the precipitate was separated from the solution containing the reaction product [2,8-^3H]adenosine by filtration through GF/B glass fiber filters (WhatmanTM GE Healthcare, Chicago, IL, USA) using a cell harvester (M-48, Brandel, Gaitherburg, MD, USA). The filtrates (ca. 1.8 mL each) were transferred to scintillation vials, scintillation cocktail ULTIMA Gold XR (PerkinElmer, Waltham, MA, USA) was added (5 mL), and the radioactivity esd quantified by scintillation counting. CD73 preparations were (1) recombinant soluble human CD73,^13 (2) recombinant soluble rat CD73,^21 both expressed in Spodoptera frugiperda 9 (Sf) cells, (3) membrane preparations of MDA-MB-231 cells,^16 a human triple-negative breast cancer cell line with high expression of CD73,^18 and (4) membrane preparations of the 4T1.2 cell line, a mouse CD73-expressing breast cancer cell line.^22 The potency of the compounds was determined by measurements of full concentration-inhibition curves. K values were calcuated from the obtained IC50 values employing the Cheng-Prusoff equation.^23
Human soluble CD73 was expressed in Spodoptera frugiperda (Sf9) insect cells and purified as previously described.^16 The cDNA encoding for the mature human CD73 (residues 27-549) fused to 6×His-tag at the C-terminus (Genbank accession no. NM_002526) corresponding to the natural variant T376A (P21589/VAR_022091, UniProtKB/Swiss-Prot) was ligated into the pAcGP67B vector. For transfection, 1 μl of the recombinant vector (1000 ng/μl) mixed with 2.5 μl of baculovirus genomic DNA ProEasy™ (AB vector, CA, USA) was used to transfect Sf9 cells grown in Insect-XPRESS™ medium (#BE12-7300, Lonza, Switzerland) supplemented with 10 mg/l gentamicin. […]

[2] = Determination of log D7.4 (1-octanol/PBS); assay type: physicochemical
Method: (§1) Determination of the log D7.4-value of [^18F]2. The lipophilicity of [^18F]2 was determined following the procedure described by Prante et al.^17 Triazole [^18F]2 (˜400 kBq) in PBS buffer (10 μL, pH 7.4) was added to PBS buffer (590 μL, pH 7.4) and octan-1-ol (600 μL). The two-layer mixture was shaken for 3 min on a vortex mixer at RT and centrifuged (3000 rpm) for 5 min. The main part of the octanol layer (400 μL) was collected carefully and added to a new tube with PBS buffer (400 μL, pH 7.4). The two-layer mixture was shaken again for 10 min and centrifuged for 5 min (3000 rpm). Three samples were prepared and two aliquots (á 100 μL) of both layers were measured in a g-counter 2480 Wizard2 (Perkin-Elmer, Waltham, USA). The partition coefficient was determined by dividing cpm(octanol) by cpm(PBS) and indicated as log D7.4 (exp.).
as §1, with “D7,4-value” for “D7.4-value”, “[^18F]PSB-19427.” for “[^18F]2.”, “[^18F]PSB-19427” for “[^18F]2”, “al.^28” for “al.^17”

s.c. AsPC-1 xenografts = assay: In vivo PET imaging in AsPC-1 tumor bearing mice; parameters: species or system NSG mice
Method: Animal models. All animal experiments were performed in accordance with the legal requirements of the European Community (Directive 2010/63/EU) and the corresponding German Animal Welfare Law (TierSchG, TierSchVersV) and were approved by the local authorizing agency (State Office for Nature, Environment and Consumer Protection North Rhine-Westphalia). MDA-MB-231 or AsPC-1 cells were cultivated in RPMI supplemented with 10% fetal calf serum and 100 U/mL penicillin and 100 μg/mL streptomycin. 5×10^6 MDA-MB-231 or AsPC-1 cells were injected subcutaneously into the shoulder region of 10 to 12 week old NSG mice (NOD.Cg-Prkdcscidll2rgtm1Wjl/SzJ, Charles River Laboratories). […]
In vivo Imaging. […] Three-dimensional volumes of interest (VOIs) were defined over the respective organs in CT data sets, transferred to the coregistered PET data, and analyzed quantitatively. Regional uptake was calculated as a percentage of injected dose by dividing counts per milliliter in the VOI by total counts in the mouse multiplied by 100 (% ID/mL).
(§2) Ex vivo gamma counter measurements. […] Ex vivo biodistribution of radioactivity was analyzed by scintillation counting (Wizard2 gamma counter, Perkin-Elmer Life Science) and the radioactivity in respective organs decay-corrected and calculated as % ID per gram tissue (% ID/g).

[3] = system: s.c. MDA-MB-231 xenografts; assay: In vivo PET imaging in MDA-MB-231 tumor bearing mice; parameters: species or system NSG mice
Method: Animal models. All animal experiments were performed in accordance with the legal requirements of the European Community (Directive 2010/63/EU) and the corresponding German Animal Welfare Law (TierSchG, TierSchVersV) and were approved by the local authorizing agency (State Office for Nature, Environment and Consumer Protection North Rhine-Westphalia). MDA-MB-231 or AsPC-1 cells were cultivated in RPMI supplemented with 10% fetal calf serum and 100 U/mL penicillin and 100 μg/mL streptomycin. 5×10^6 MDA-MB-231 or AsPC-1 cells were injected subcutaneously into the shoulder region of 10 to 12 week old NSG mice (NOD.Cg-Prkdcscidll2rgtm1Wjl/SzJ, Charles River Laboratories). Two tumors were inoculated per animal and growth was followed by digital caliper measurements (volume=½ (length*width^2)).
In vivo Imaging. Adult C57bl/6 (biodistribution study, 21±1 g) or tumor bearing NSG mice (24±3 g) were anesthetized by isoflurane/O2 and one lateral tail vein was cannulated using a 27 G needle connected to 15 cm polyethylene catheter tubing. ^18F-PSB-19427 (˜450 kBq/g body weight) were injected as a bolus (50 μL compound flushed with 50 μL saline) via the tail vein and subsequent PET scanning was performed. In the blocking studies, a subgroup of tumor-bearing mice was injected with ˜1000 fold excess of unlabeled PSB-19427 10 minutes prior to radiotracer injection. […] Three-dimensional volumes of interest (VOIs) were defined over the respective organs in CT data sets, transferred to the coregistered PET data, and analyzed quantitatively. Regional uptake was calculated as a percentage of injected dose by dividing counts per milliliter in the VOI by total counts in the mouse multiplied by 100 (% ID/mL).
as §2

Ki [1] [nM]	factor of increase of measured solubility in PBS-buffer (1-octanol/PBS) versus clog P ([2]; compared to clog P 0.22)	factor of increase of measured solubility in PBS-buffer (1-octanol/PBS) versus clog P ([2]; compared to clog P 0.47)	logD ([2]; octan-1-ol/PBS buffer, 1-octanol/PBS pH 7.4)	accumulation of the tracer in the tumor xenografts as compared to muscle tissue (s.c. AsPC-1 xenografts; PET 4 h p.i., i.v., AsPC-1 xenografts)	accumulation in the tumor as compared to FDG ([3]; MDA-MB-231 tumors, 90 min and 4 h, especially in relation to muscle uptake)	accumulation of the tracer in the tumor xenografts as compared to muscle tissue ([3]; PET 4 h p.i., i.v., MDA-MB-231 xenografts)	Compound	change of tumor-to-muscle ratios in blocking study (s.c. AsPC-1 xenografts; AsPC-1, pretreating with PSB-12651 (7) 10 min before tracer injection)	change of tumor-to-muscle ratios in blocking study ([3]; MDA-MB-231, pretreating with unlabeled compound 2 10 min before tracer injection)
0.372 ± 0.03	–	–	–	–	–	–	C#Cc1ccc(CN(CCC)c2nc(Cl)nc3c2ncn3[C@@H]2O[C@H](COP(=O)(O)CP(=O)(O)O)C(O)C2O)cc1 (stereo partly drawn) [Compound 1]	–	–
–	2.2	3.9	-0.12 ± 0.03	pronounced accumulation	higher accumulation	pronounced accumulation	CCCN(Cc1ccc(-c2cn(CC[18F])nn2)cc1)c1nc(Cl)nc2c1ncn2C1O[C@H](COP(=O)(O)CP(=O)(O)O)C(O)C1O (stereo partly drawn) [[^18F]2, [^18F]-[((2R,3S,4R,5R)-5-{2-chloro-6-[(4-{1-[2-(fluoro)ethyl]-1H-1,2,3-triazol-4-yl}benzyl)(propyl)amino]-9H-purin-9-yl}-3,4-dihydroxytetrahydrofuran-2-yl)methoxy]methylenebisphosphonic acid]	significant decrease of tumor-to-muscle ratios	significant decrease of tumor-to-muscle ratios
